From PubChem BioAssay (NCI)
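1) Cells in 96-well plates. 2) Compound, 48 h, 5 concentrations. 3) Linear interpolation between surrounding doses. 4) Unreached endpoint = highest concentration. GI50 is the concentration that inhibits growth by half. Definition used: TGI = concentration required for complete inhibition of growth.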

What was measured:
Assay in all cases: NCI-60 cell line screen, 48 h
SF-268 CNS = tested on: SF-268 CNS
DLD-1 colon = tested on: DLD-1 colon
RXF 393 renal = tested on: RXF 393 renal
UO-31 renal = tested on: UO-31 renal
K-562 leukemia = tested on: K-562 leukemia
A498 renal = tested on: A498 renal
SNB-75 CNS = tested on: SNB-75 CNS
TK-10 renal = tested on: TK-10 renal
IGROV1 ovarian = tested on: IGROV1 ovarian
M14 melanoma = tested on: M14 melanoma

SMILES | TGI (SF-268 CNS) [µM] | TGI (DLD-1 colon) [µM] | TGI (RXF 393 renal) [µM] | TGI (UO-31 renal) [µM] | TGI (K-562 leukemia) [µM] | TGI (A498 renal) [µM] | TGI (SNB-75 CNS) [µM] | TGI (TK-10 renal) [µM] | TGI (IGROV1 ovarian) [µM] | TGI (M14 melanoma) [µM] | GI50 (SF-268 CNS) [µM] | GI50 (DLD-1 colon) [µM] | GI50 (UO-31 renal) [µM] | GI50 (K-562 leukemia) [µM] | GI50 (A498 renal) [µM] | GI50 (SNB-75 CNS) [µM] | GI50 (TK-10 renal) [µM] | GI50 (IGROV1 ovarian) [µM] | GI50 (M14 melanoma) [µM]
CC(C)(C)NCC(COc1ccc([N+](=O)[O-])cc1)OP(c1ccccc1)c1ccccc1 (stereo not drawn) | > 100 | > 100 | > 100 | > 100 | > 100 | > 100 | > 100 | > 100 | > 100 | > 100 |  |  |  |  |  |  |  |  | 
O=C1[C@H]2ON(c3ccccc3)C(c3ccco3)[C@H]2C(=O)N1c1ccc(Cc2ccc(N3C(=O)[C@@H]4ON(c5ccccc5)C(c5ccco5)[C@@H]4C3=O)cc2)cc1 (stereo partly drawn) | > 100 | > 100 | > 100 | > 100 | > 100 | > 100 | > 100 |  | > 100 | > 100 |  |  |  |  |  |  |  |  | 
COc1cc(CNc2nc3ccc(C(F)(F)F)cc3nc2-c2ccccc2)cc(OC)c1OC | > 100 | > 100 |  | 55.6 | > 100 | > 100 | 61.7 | > 100 | > 100 | > 100 |  |  |  |  |  |  |  |  | 
COc1ccc(-c2c(C3=NCCCN3)nnn2-c2ccc([N+](=O)[O-])cc2)cc1 | > 100 | > 100 | > 100 | > 100 | > 100 | > 100 | > 100 | > 100 | > 100 | > 100 |  |  |  |  |  |  |  |  | 
CCCCCCCCCCCCCCCCCCOCC(COCCOCC[N+]1(CCCCCC(=O)[O-])CCCC1)Oc1ncccn1 (stereo not drawn) | 16.5 | 14 | 10.4 | 23.6 | 14.2 | 9.55 | 12.8 | 20.3 | 3.83 | 22.7 |  |  |  |  |  |  |  |  | 
Cc1ccc(C)c(N2C(=O)C(=O)C(c3nc4ccccc4s3)C(=Nc3cccc4c(=O)[nH][nH]c(=O)c34)C2=O)c1 (stereo not drawn) | > 100 | > 100 |  | > 100 | > 100 | > 100 | > 100 | > 100 | > 100 | > 100 |  |  |  |  |  |  |  |  | 
N#Cc1c(-c2ccco2)cc(-c2ccccc2)[nH]c1=O | > 100 | > 100 | > 100 | > 100 | > 100 | > 100 | > 100 | > 100 | > 100 | > 100 |  |  |  |  |  |  |  |  | 
c1ccc2[nH]c(CNc3ccc(C4C[Se]N=N4)cc3)nc2c1 (stereo not drawn) | > 100 | > 100 | > 100 | > 100 | > 100 | > 100 | > 100 | > 100 | > 100 | > 100 |  |  |  |  |  |  |  |  | 
Cc1c(C)c(CC(=O)N2CC2)c(C)c(C)c1CC(=O)N1CC1 | 23.1 | 56.5 | 12.8 | 38.7 | > 92.7 | 32.1 | 50.8 | > 83 | 43.2 | 18.9 |  |  |  |  |  |  |  |  | 
N#C/C(=C1\SC(N=Nc2ccc(Cl)cc2)C(=O)N1c1ccccc1)c1nc2ccccc2[nH]1 (stereo not drawn) | > 100 | > 100 | 67.9 | 40 | 41 | 58.4 | 65.5 | 61.6 |  | > 100 |  |  |  |  |  |  |  |  | 
C=C1C(=O)C23C(O)C1CC[C@H]2C12CCCC(C)(COC(C)=O)[C@H]1[C@H](O)[C@]3(O)OC2 (stereo partly drawn) | 6.95 | 1.7 | 1.58 | 3.35 | 1.07 | 6.77 | 4.33 | 3.62 | 4.05 | 2.84 |  |  |  |  |  |  |  |  | 
CC1(C)CC(=O)C(CC2C(=O)c3ccccc3C2=O)C(=O)C1 | > 100 | > 100 | > 100 | > 100 | > 100 | > 100 | > 100 | > 100 | > 100 | > 100 |  |  |  |  |  |  |  |  | 
Cc1ccccc1/C=C/C(=O)c1ccccc1 | 30 | 54.9 |  | 36.2 | 49.7 | 30.2 | 34.6 |  | 62.1 | 29.6 |  |  |  |  |  |  |  |  | 
Cc1cccc(C)c1N1C(=O)C(=O)C(c2nc3ccccc3s2)/C(=N/NC(=O)NN)C1=O (stereo not drawn) | > 100 | > 100 | > 100 | > 100 |  | > 100 | > 100 | > 100 | > 100 | > 100 |  |  |  |  |  |  |  |  | 
CC(C)(C)OC(=O)NC1CCCC1=O (stereo not drawn) | > 100 | > 100 | > 100 | > 100 | > 100 | > 100 | > 100 | > 100 |  | > 100 |  |  |  |  |  |  |  |  | 
O=C1CNS(=O)(=O)N1 | > 100 | > 100 |  | > 100 | > 100 | > 100 | > 100 | > 100 | > 100 | > 100 |  |  |  |  |  |  |  |  | 
CC1=NN(C(=O)c2ccncc2)C(=O)C1N=Nc1ccc(F)cc1 (stereo not drawn) | > 100 | > 100 | > 100 | > 100 | > 100 | > 100 | 66.8 | > 100 | > 100 | > 100 |  |  |  |  |  |  |  |  | 
CCCCCCC(C)CCCCCCCCCCC(=O)O (stereo not drawn) | > 100 | > 100 | > 100 | > 100 | > 100 | > 100 | > 100 | > 100 | > 100 | > 100 |  |  |  |  |  |  |  |  | 
CN(C)C(=S)Nc1nnc(Nc2ccccc2)s1 |  | > 100 | > 100 | > 100 | > 100 | > 100 | > 100 |  | > 100 | > 100 |  |  |  |  |  |  |  |  | 
Cn1c(=O)nc2n(-c3ccc(Cl)c(C(F)(F)F)c3)c3ccccc3nc-2c1=O | > 100 | > 100 | > 100 | > 100 | > 100 | > 100 | > 100 | > 100 | > 100 | > 91.3 |  |  |  |  |  |  |  |  | 
CCOC(OC1=C(C#N)CCCC1)C(CC)[Se]c1ccccc1 (stereo not drawn) | 27.8 | 34.4 | 31.1 | > 100 | > 100 | > 100 | 80.7 | > 100 | 74.1 | > 100 |  |  |  |  |  |  |  |  | 
O=S1CSSC1 | 58.4 | 43.1 | 35.2 | 34.7 | 80.7 | > 100 | 92.6 | > 100 | 54.9 | 55.8 |  |  |  |  |  |  |  |  | 
CCCCCCCCCCCC1CC(=O)NCCCN(C)CCCCN(C)CCCN1C (stereo not drawn) | 3.3 | 3 | 3.02 | 3.11 | 0.699 | 3.14 | 2.99 | 3.12 | 3.22 | 3.24 |  |  |  |  |  |  |  |  | 
N.N.N.N.N.O=S(=O)([O-])S(=O)(=O)[O-].[Co+3] | > 100 | > 100 |  | > 100 | > 100 | > 100 | > 100 | > 100 | > 100 | > 100 | > 100 | > 100 | > 100 | > 100 | > 100 | 62.8 | > 100 | > 100 | > 100
Cc1c2ccncc2c(C)c2c1[nH]c1ccc(O)c(OCC(F)(F)F)c12 | 24.1 | 18.2 |  | 19.9 | 33.9 | 37.5 | 21.1 | 25 | 18.1 | 19.7 |  |  |  |  |  |  |  |  | 
Cc1nc(-c2cccnc2)sc1C(=O)/C=C/c1cccc([N+](=O)[O-])c1 | > 100 | > 100 | > 100 | > 100 | > 100 | > 100 | > 100 | > 100 | > 100 |  |  |  |  |  |  |  |  |  | 
COc1cc(C2c3cc4c(cc3[C@@H](Nc3ccc5c(c3)OCCO5)C3COC(=O)[C@H]23)OCO4)cc(OC)c1O (stereo partly drawn) | 23.1 | 5.17 | 4.64 | 12.9 | 16.4 | 1.42 | 5.59 | 11.6 | 16.6 | 5.08 |  |  |  |  |  |  |  |  | 
CC(=O)n1c(=O)c2cc3c(=O)n(-c4cccc(C#N)c4)c(=O)c3cc2c1=O | > 100 | > 100 | > 100 | > 100 | > 100 | > 100 | 54.6 | > 100 | > 100 | > 100 |  |  |  |  |  |  |  |  | 
O=C(CC1(O)C(=O)Nc2c(Cl)ccc(Cl)c21)c1ccc(Cl)cc1Cl (stereo not drawn) | 62.9 | > 100 | 42.3 | 37.1 |  | 42.5 | 46.9 | > 100 | 35.4 | 25.9 |  |  |  |  |  |  |  |  | 
Cc1cccc(C)c1N1C(=O)C(=O)C(c2nc3ccccc3s2)C(=Nc2cccc3c(=O)[nH][nH]c(=O)c23)C1=O (stereo not drawn) | > 100 | > 100 |  | > 100 | > 100 | > 100 | > 100 | > 100 | > 100 | > 100 |  |  |  |  |  |  |  |  | 
